US8809372B2, “Pyridine derivatives” (Endo Pharmaceuticals, Inc., priority 2011, dated 2014)

Assays:
[1] = target: T1, human CYP17 in H295R adrenocortical carcinoma cells (Homo sapiens, UniProt P05093); test: Cell-based human CYP17 inhibition assay, H295R cells; conditions: 16 hours, read-out: CYP17 (human H295R adrenal cells)
T1 construct: H295R Adrenocortical carcinoma cells [NCI-H295A, ATCC Number CRL-2128, American Type Culture Collection; host or cells: H295R adrenocortical carcinoma cells
T1 sequence (P05093 1-508): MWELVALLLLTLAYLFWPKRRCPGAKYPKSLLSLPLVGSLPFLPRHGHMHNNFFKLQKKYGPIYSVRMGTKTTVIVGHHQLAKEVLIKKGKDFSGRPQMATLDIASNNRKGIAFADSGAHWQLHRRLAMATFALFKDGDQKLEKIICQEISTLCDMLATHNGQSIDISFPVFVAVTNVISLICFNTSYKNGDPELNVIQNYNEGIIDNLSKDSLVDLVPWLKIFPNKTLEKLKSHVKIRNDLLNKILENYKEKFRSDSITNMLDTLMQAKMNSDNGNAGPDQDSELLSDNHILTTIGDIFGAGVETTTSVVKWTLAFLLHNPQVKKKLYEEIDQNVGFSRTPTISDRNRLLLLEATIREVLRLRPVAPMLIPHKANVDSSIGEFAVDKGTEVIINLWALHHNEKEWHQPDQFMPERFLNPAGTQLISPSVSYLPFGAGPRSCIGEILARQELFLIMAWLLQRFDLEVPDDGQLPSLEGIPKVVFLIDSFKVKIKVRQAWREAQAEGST
Procedure: Cell-Based Human CYP17 Inhibition Assay
1. H295R Adrenocortical Carcinoma Cells and Growth Media: The media for the H295R Adrenocortical carcinoma cells [NCI-H295A, ATCC Number CRL-2128, American Type Culture Collection, Manassas, Va., US] (500 mL) was a DMEM:F12 Mix 1:1 with 5% (2 mL) BD Nu Serum; 1% (5 mL) ITS+Premix [BD Biosciences] and 1% Penstrep. 2. LNCap-CYP17 Cells and Growth Media: Full length hCYP17a1 gene (NCBI Reference Sequence: NM_000102.3) was cloned in pcDNA3.1(+) vector between HindIII and XhoI site. The pcDNA3.1(+) vector contains the Neomycin resistance gene and was used for selection of stable cell line. The hCYP17a1 containing pcDNA3.1(+) was transfected into LNCap cells to create the LNCap-CYP17 cell line. The media for the LNCaP-CYP17 cells was RPMI 1640, 10% FBS, 1% PenStrep, Geneticin 400 μg/mL.
The H295R cells or LNCaP-hCYP17 cells were subcultured and 30,000 cells per well were seeded in a poly-d lysine plate and incubated overnight at 37° C. The next day the media was removed and 200 μL of fresh media with ^3H3-17α-hydroxy-pregnenolone (1:1000) was added. 50 μL of serially diluted compounds from a 5× plate (5 times the final desired concentration) was added. The working concentration range for active, new compounds started from a high concentration of 10 μM with 3-fold serial dilutions generating up to 10 concentrations. The serial dilution in the 100× plate (in DMSO) and the stamping of a 5× plate (in media) from the 100× plate were carried out using a TECAN liquid handling device.
The plates were incubated overnight (16 hours) at 37° C. After 16 hours, the media was removed (approximately 220 μL) and an equal amount of chloroform was added, mixed and incubated for 30 minutes at 4 degrees. The plate was centrifuged at 4000 rpm for 15 minutes at 4° C., following which the top aqueous layer was carefully removed and added into a new deep well plate. An equal volume of activated 5% charcoal was added, mixed and incubated for 30 minutes at 4° C. The plate was then centrifuged at 4000 rpm for 15 minutes at 4° C. and the top layer carefully separated, avoiding any charcoal contamination, and placed in a white, clear bottom plate (plate cat #3610, Corning Life Sciences). An equal volume of Microscint™ 40 was added and mixed well. Following the incubation for 30 minutes, readings for the radiotracer were taken using a Microbeta® trilux.

[2] = target: T2, rat CYP17 (rat testicular microsomes) (Rattus norvegicus, UniProt P11715); test: CYP17 inhibition assay in rat testicular microsomes; type: biochemical
T2 construct: Rat testis tissue was collected and disrupted with 30 strokes of a glass homogenizer; from tissue; host or cells: rat testis (microsomes)
T2 sequence (P11715 1-507): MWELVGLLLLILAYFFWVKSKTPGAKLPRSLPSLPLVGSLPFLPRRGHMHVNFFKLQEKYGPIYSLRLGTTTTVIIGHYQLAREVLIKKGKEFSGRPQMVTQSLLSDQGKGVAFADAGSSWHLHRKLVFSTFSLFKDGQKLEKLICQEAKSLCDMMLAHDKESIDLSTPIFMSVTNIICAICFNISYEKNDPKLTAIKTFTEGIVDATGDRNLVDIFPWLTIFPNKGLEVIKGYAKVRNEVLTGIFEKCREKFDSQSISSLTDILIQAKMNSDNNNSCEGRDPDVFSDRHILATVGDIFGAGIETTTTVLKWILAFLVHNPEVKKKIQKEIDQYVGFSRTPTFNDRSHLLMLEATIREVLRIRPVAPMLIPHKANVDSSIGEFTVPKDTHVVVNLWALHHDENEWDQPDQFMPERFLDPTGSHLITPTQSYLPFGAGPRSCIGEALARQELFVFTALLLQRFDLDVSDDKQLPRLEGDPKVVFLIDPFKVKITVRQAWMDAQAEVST
Procedure: CYP17 Inhibition Assay in Rat Testicular Microsomes (Rat CYP17) or Yeast Microsome Overexpressing Human CYP17
1. NADPH (Sigma): A working stock was prepared by adding 25 μL of 6.5 mM NADPH in each tube. The final concentration of NADPH used in the assay was 325 μM.
2. Potassium Phosphate Buffer: One molar (1M) solutions of K2HPO4 and KH2PO4 were prepared. Eight mL of the 1 M KH2PO4 and 1.98 mL of the 1 M K2HPO4 were combined and the pH was adjusted to 7.4.
3. ^3H3-17α-hydroxypregnenolone (American Radiolabeled Chemicals, Inc., stock 1 μCi/μL): A 1:1 dilution of ^3H3-17α-hydroxypregnenolone in ethanol was prepared by combining 100 μL ^3H3-17α-hydroxypregnenolone+100 μL ethanol for one complete 96 well plate. For the reaction, 2 μL of the diluted ^3H3-17α-hydroxypregnenolone was added in each tube, i.e., 1 μCi/reaction. 4. Microsome Isolation Buffer: The microsome isolation buffer was prepared by combining 250 mM Sucrose, 5 mM EDTA, 10 mM Tris HCl, 4 mM DTT, and adjusting to pH 7.4. 5. TEG Buffer: The TEG buffer was prepared by combining 50 mM Tris HCl, 1 mM EDTA, and 20% Glycerol. 6. Rat Testicular Microsomes: Rat testis tissue was collected and disrupted with 30 strokes of a glass homogenizer on ice with 250 μL of microsome isolation buffer, followed by centrifugation at 10,000 g for 10 minutes at 4° C. The supernatant was collected and centrifuged at 100,000 g for 45 minutes at 4° C. The pellet was dissolved in TEG Buffer and the protein was quantified. The homogenized microsome samples were then frozen at −80° C. • 7. Yeast Microsomes which overexpress the human CYP17 enzyme were obtained from Premas Biotech, India.
Potassium phosphate buffer (470 μL) was prepared as described above and was added to each well of a deep well plate. The test compound was diluted using a TECAN liquid handler and 5 μL of diluted compound was transferred to each well (96 deep well/1 mL). A solution (25 μL) of 6.5 mM NADPH was added (final concentration of 325 μM in the assay). ^3H3-17α-hydroxypregnenolone (2 μL of the working stock) was added to each tube. The plates were then pre-incubated for 15 minutes at 37° C. Following the pre-incubation, either 5 μL rat testicular microsomes (150-160 μg) or 5 μL of yeast microsomes expressing human CYP17 (1.7 pmol), was added. Incubation was at 37° C. for 60 minutes in the presence of oxygen. The plates were then placed in ice and chloroform (500 μL) was added, mixed well and incubated at 4° C. for 20 minutes. The plates were then centrifuged at 1000 rpm for 15 minutes at 4° C.
A portion (300 μL) of the aqueous solution was collected and mixed with a 5% aqueous suspension of activated charcoal (300 μL). The plates were then incubated at 4° C. for 30 minutes, after which the plates were centrifuged at 1000 rpm for 15 minutes at 4° C. From this, 125 μL of the aqueous solution was collected and plated into a 96 well plate. Microscint™ 40 [125 μL, Perkin-Elmer; containing a mixture of a polymer based on alkylphenolethoxylate (20-40%), diethanolamine-phosphoric acid ester ammonium salt (10-20%), sodium dioctyl sulphosuccinate (2.5-10%), triethyl phosphate (2.5-10%), 3,6-dimethyl-4-octyne-3,6-diol (≦2.5%), a polymer based on nonylphenolethoxylate (≦2.5%), diisopropyl naphthalene isomers (40-60%), 2,5-diphenyloxazole (≦2.5%), and 9,10-dimethylanthracene] was added and mixed well. After 30 minutes of incubation, the samples were analyzed with a MicroBeta® Trilux microplate liquid scintillation counter and luminometer (Perkin-Elmer).

Row | IC50 [1] [nM] | IC50 [2] [nM] | Compound
1 | 50 to 200 | < 50 | CC(O)(c1ccncc1)c1ncc(-c2ccc(F)cc2)s1 (single isomer, unassigned; (+)) [Example 55, (+)-1-(5-(4-fluorophenyl)thiazol-2-yl)-1-(pyridin-4-yl)ethanol]
2 | 201 to 10000 | 50 to 200 | OC1(c2cnc(-c3ccc(F)cc3)s2)CCc2cnccc21 (stereo not drawn) [Example 59, 5-(2-(4-fluorophenyl)thiazol-5-yl)-6,7-dihydro-5H-cyclopenta[c]pyridin-5-ol]
3 | 50 to 200 | < 50 | OC(c1ccncc1)c1cnc(-c2ccc(F)cc2)s1 (stereo not drawn) [Example 24, [2-(4-fluorophenyl)-1,3-thiazol-5-yl](pyridin-4-yl)methanol]
4 | 50 to 200 | < 50 | CC(O)(c1ccncc1)c1cc(-c2ccc(F)cc2)no1 (stereo not drawn) [Example 32, 1-[3-(4-Fluoro-phenyl)-isoxazol-5-yl]-1-pyridin-4-yl-ethanol]
5 | 50 to 200 | < 50 | CC(O)(c1ccncc1)c1nnc(-c2ccc(F)cc2)s1 (stereo not drawn) [Example 61, 1-(5-(4-fluorophenyl)-1,3,4-thiadiazol-2-yl)-1-(pyridin-4-yl)ethanol]
6 | < 50 | < 50 | CCC(O)(c1ccncc1)c1cnc(-c2cn[nH]c2)s1 (single isomer, unassigned; (-)) [Example 19, (−)-1-[2-(1H-pyrazol-4-yl)-1,3-thiazol-5-yl]-1-pyridin-4-ylpropan-1-ol]
7 | 50 to 200 | < 50 | CC(N)(c1ccncc1)c1cnc(-c2ccc(F)cc2)s1 (stereo not drawn) [Example 68, 1-(2-(4-Fluorophenyl)thiazol-5-yl)-1-(pyridin-4-yl)ethanamine]
8 | 201 to 10000 | 201 to 10000 | Cn1cc(-c2ncc(C(C)(O)c3ccncc3)o2)ccc1=O (stereo not drawn) [Example 60, 5-(5-(1-hydroxy-1-(pyridin-4-yl)-ethyl)oxazol-2-yl)-1-methylpyridin-2(1H)-one]
9 | 201 to 10000 | 50 to 200 | CC(O)(c1ccncc1)c1nnc(-c2ccc(F)cc2)o1 (stereo not drawn) [Example 31, 1-(5-(4-Fluorophenyl)-1,3,4-oxadiazol-2-yl)-1-(pyridin-4-yl)ethanol]
10 | < 50 | < 50 | CC(O)(c1ccncc1)c1cnc(-c2ccc(F)c(Cl)c2)s1 (stereo not drawn) [Example 46, 1-(2-(3-chloro-4-fluorophenyl)thiazol-5-yl)-1-(pyridin-4-yl)ethanol]
11 | < 50 | < 50 | CC(O)(c1ccncc1)c1cnc(-c2ccc(Cl)cc2)s1 (stereo not drawn) [Example 28, 1-(2-(4-Chlorophenyl)thiazol-5-yl)-1-(pyridin-4-yl)ethanol]
12 | 201 to 10000 | < 50 | CC(O)(c1ccncc1)c1cnc(-c2cncnc2)s1 (stereo not drawn) [Example 64, 1-(pyridin-4-yl)-1-(2-(pyrimidin-5-yl)thiazol-5-yl)ethanol]
13 | < 50 | < 50 | CC(C)C(O)(c1ccncc1)c1cnc(-c2ccc(F)cc2)s1 (stereo not drawn) [Example 33, 1-[2-(4-Fluoro-phenyl)-thiazol-5-yl]-2-methyl-1-pyridin-4-yl-propan-1-ol]
14 | 201 to 10000 | < 50 | CC(O)(c1ccncc1)c1cc(-c2ccc(F)cc2)n[nH]1 (stereo not drawn) [Example 49, 1-(3-(4-fluorophenyl)-1H-pyrazol-5-yl)-1-(pyridin-4-yl)ethanol]
15 | < 50 | < 50 | CC(O)(c1ccncc1)c1cc(-c2ccc(F)cc2)ns1 (stereo not drawn) [Example 48, 1-(3-(4-fluorophenyl)isothiazol-5-yl)-1-(pyridin-4-yl)ethanol]
16 | < 50 | < 50 | CC(O)(c1ccncc1)c1cnc(-c2ccc(C(F)(F)F)c(Cl)c2)s1 (stereo not drawn) [Example 41, 1-(2-(3-chloro-4-(trifluoromethyl)phenyl)thiazol-5-yl)-1-(pyridin-4-yl)ethanol]
17 | < 50 | < 50 | CC(O)(c1ccncc1)c1cnc(-c2ccc(F)cc2F)s1 (stereo not drawn) [Example 27, 1-[2-(2,4-Difluoro-phenyl)-thiazol-5-yl]-1-pyridin-4-yl-ethanol]
18 | < 50 | < 50 | CC(O)(c1ccncc1)c1nc(-c2ccc(F)cc2)ns1 (stereo not drawn) [Example 52, 1-(3-(4-fluorophenyl)-1,2,4-thiadiazol-5-yl)-1-(pyridin-4-yl)ethanol]
